Measured values taken from patent publication US9649313B2, “Use of ITK inhibitors for the treatment of cancer” (The University of North Carolina at Chapel Hill, priority 2012, dated 2017).

Columns and labels:
[1] = biological target: T1, ABL (Homo sapiens, UniProt P00519); experiment: cell-free kinase assay; assay type: biochemical
T1 construct: purchased Carna Biosciences
Excerpt: (§1) We investigated the potency and selectivity of BI 10N against 56 kinases using a cell-free assay (Table 8A). […] The selectivity of this inhibitor was investigated by testing the potency of the inhibitor at two concentrations with 53 kinases by Carna Biosciences (MA) (Table 2).

[2] = biological target: T2, FGFR1 (Homo sapiens, UniProt P11362); experiment: cell-free kinase assay; assay type: biochemical
T2 construct: purchased Carna Biosciences
Excerpt: as §1

[3] = biological target: T3, FYN (Homo sapiens, UniProt P06241); experiment: cell-free kinase assay; assay type: biochemical; settings: Table 2, by Carna Biosciences
T3 construct: purchased Carna Biosciences
Excerpt: as §1

[4] = biological target: T4, IGF1R (Homo sapiens, UniProt P08069); experiment: cell-free kinase assay; assay type: biochemical
T4 construct: purchased Carna Biosciences
Excerpt: as §1

[5] = biological target: T5, LCK (Homo sapiens, UniProt P06239); experiment: cell-free kinase assay; assay type: biochemical
T5 construct: purchased Carna Biosciences
Excerpt: as §1

[6] = biological target: T6, TRKA (Homo sapiens, UniProt P04629); experiment: cell-free kinase assay; assay type: biochemical
T6 construct: purchased Carna Biosciences
Excerpt: as §1

[7] = biological target: T7, TRKC (Homo sapiens, UniProt Q16288); experiment: cell-free kinase assay; assay type: biochemical
T7 construct: purchased Carna Biosciences
Excerpt: as §1

[8] = biological target: T8, phosphorylated (active) form of ITK in RPMI 8322 cells (Homo sapiens, UniProt Q08881); experiment: two-dimensional electrophoresis and western blot of ITK isoforms; assay type: cell-based; settings: RPMI 8322 cells treated for 3 days
T8 construct: endogenous in cells; host or cells: RPMI 8322 human melanoma cells
Excerpt: Therefore, alternatively, we performed two-dimensional electrophoresis on whole cell lysates obtained from RPMI 8322 cells that had been treated with phosphatase or different concentrations of BI 10N for 3 days prior to harvest followed by western blot analysis using the ITK antibody. In untreated RPMI 8322 cells, two charge isoforms that migrated with the appropriate weight for ITK were identified by immunoblot analysis. […] These observations indicate that the formation of the phosphorylated (active) form of ITK is inhibited in the presence of ≧25 nM of BI 10N (data not shown).

[9] = system: ERK and AKT activation status in RPMI 8322 cells; experiment: western blot of ERK and AKT activation; assay type: cell-based, Human; settings: concentrations as high as 50 nM, 3 days
Experimental: (§2) FIG. 9. Western blots of phospho-ERK and phospho-AKT.
(§3) To investigate the impact of ITK inhibition by BI 10N on the ERK and AKT signaling pathways, which are frequently misregulated in melanoma, the ITKHI melanoma cell lines (VMM 39 and RPMI 8322) were grown in the presence of increasing BI 10N concentrations. Western blot analysis was performed on whole cell lysates from these cells using antibodies against ERK, pERK^Thr202/Tyr204, AKT, and pAKT^Ser473.

[10] = system: ERK and AKT activation status in VMM 39 cells; experiment: western blot of ERK and AKT activation; assay type: cell-based, Human; settings: concentrations as high as 50 nM, 3 days
Experimental: as §2, §3

[11] = biological target: T9, ITK (Homo sapiens, UniProt Q08881); settings: Riether et al., 2009, cited from earlier work
T9 construct: purchased Carna Biosciences
T9 sequence (Q08881 1-620): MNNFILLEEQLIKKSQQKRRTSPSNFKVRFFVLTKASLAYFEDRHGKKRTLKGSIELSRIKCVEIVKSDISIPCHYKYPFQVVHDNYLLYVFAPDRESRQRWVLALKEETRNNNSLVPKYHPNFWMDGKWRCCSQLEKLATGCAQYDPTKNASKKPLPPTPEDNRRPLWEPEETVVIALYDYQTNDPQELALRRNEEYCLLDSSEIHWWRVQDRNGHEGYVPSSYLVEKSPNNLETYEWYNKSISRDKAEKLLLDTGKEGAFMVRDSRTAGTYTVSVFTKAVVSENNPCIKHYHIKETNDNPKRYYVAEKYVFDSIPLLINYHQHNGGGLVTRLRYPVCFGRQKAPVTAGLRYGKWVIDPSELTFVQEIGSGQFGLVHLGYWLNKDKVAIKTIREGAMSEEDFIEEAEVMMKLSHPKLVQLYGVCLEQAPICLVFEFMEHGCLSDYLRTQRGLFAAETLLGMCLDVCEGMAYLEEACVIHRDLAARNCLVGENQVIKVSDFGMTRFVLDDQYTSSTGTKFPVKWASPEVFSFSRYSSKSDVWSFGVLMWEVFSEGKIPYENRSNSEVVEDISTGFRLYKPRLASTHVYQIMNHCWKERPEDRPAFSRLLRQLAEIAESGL

[12] = system: cytokine production; settings: anti-CD3 antibody stimulated Balb/c mice; Riether et al., 2009; cited from earlier work

T6 sequence (P04629 33-796): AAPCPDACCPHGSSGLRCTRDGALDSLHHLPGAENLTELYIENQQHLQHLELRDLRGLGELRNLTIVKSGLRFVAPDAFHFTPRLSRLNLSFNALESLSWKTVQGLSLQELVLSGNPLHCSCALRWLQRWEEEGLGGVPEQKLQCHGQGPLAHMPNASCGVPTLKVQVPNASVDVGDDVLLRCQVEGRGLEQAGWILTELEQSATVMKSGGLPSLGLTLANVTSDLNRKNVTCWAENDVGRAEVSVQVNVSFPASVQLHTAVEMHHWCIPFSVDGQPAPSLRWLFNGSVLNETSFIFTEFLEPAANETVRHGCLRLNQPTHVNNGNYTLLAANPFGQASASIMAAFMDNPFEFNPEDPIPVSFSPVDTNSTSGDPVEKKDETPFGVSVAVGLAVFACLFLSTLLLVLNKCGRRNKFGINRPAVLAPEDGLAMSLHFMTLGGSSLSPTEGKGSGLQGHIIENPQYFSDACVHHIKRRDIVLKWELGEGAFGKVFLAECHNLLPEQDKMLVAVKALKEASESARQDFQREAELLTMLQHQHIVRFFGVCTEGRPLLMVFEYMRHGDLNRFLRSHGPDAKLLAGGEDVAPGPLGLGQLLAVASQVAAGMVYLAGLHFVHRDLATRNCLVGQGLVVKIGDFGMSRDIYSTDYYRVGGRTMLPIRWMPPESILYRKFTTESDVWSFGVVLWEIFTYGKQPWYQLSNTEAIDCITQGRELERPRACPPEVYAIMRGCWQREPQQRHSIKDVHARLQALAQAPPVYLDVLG
T2 sequence (P11362 22-822): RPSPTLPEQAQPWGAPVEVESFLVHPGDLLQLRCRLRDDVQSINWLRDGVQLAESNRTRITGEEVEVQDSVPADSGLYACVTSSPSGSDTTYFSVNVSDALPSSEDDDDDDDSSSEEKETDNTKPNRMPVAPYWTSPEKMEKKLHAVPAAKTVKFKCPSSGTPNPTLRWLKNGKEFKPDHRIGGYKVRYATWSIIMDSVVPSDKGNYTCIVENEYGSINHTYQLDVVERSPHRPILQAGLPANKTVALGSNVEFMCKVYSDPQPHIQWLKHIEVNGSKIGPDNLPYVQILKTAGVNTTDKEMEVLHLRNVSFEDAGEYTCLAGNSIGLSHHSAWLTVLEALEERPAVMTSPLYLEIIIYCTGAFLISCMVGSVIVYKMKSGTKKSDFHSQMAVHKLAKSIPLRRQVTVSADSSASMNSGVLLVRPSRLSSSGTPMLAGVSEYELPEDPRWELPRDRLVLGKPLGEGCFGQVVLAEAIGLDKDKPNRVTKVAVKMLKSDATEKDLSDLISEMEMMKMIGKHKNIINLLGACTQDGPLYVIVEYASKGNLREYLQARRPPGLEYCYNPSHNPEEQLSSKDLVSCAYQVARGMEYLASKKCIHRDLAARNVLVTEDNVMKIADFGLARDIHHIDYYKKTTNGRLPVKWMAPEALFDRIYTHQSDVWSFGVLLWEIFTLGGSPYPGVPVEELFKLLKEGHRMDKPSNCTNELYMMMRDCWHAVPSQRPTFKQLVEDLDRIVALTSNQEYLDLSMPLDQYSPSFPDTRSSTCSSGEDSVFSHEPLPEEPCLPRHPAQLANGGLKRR
T7 sequence (Q16288 32-839): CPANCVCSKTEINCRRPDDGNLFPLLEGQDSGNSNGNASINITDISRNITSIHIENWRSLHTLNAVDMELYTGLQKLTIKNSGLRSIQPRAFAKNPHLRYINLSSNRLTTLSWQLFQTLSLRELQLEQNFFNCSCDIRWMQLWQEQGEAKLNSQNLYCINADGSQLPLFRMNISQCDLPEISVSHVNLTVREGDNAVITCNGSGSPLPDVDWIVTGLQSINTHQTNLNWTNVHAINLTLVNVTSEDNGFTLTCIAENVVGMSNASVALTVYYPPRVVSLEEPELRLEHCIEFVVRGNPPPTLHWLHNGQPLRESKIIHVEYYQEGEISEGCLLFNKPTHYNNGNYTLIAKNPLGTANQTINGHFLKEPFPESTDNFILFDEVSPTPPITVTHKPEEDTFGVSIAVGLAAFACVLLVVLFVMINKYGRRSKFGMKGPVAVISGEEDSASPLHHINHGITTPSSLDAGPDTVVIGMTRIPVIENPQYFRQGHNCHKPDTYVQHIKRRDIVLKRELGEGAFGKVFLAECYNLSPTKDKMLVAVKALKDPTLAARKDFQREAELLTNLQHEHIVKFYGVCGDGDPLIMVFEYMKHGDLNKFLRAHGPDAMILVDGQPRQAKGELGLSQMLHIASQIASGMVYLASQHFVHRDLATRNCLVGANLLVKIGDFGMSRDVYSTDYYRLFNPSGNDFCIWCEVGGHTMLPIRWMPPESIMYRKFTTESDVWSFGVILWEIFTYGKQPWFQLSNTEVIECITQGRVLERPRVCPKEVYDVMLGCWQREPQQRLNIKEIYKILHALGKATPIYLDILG
T4 sequence (P08069 31-1367): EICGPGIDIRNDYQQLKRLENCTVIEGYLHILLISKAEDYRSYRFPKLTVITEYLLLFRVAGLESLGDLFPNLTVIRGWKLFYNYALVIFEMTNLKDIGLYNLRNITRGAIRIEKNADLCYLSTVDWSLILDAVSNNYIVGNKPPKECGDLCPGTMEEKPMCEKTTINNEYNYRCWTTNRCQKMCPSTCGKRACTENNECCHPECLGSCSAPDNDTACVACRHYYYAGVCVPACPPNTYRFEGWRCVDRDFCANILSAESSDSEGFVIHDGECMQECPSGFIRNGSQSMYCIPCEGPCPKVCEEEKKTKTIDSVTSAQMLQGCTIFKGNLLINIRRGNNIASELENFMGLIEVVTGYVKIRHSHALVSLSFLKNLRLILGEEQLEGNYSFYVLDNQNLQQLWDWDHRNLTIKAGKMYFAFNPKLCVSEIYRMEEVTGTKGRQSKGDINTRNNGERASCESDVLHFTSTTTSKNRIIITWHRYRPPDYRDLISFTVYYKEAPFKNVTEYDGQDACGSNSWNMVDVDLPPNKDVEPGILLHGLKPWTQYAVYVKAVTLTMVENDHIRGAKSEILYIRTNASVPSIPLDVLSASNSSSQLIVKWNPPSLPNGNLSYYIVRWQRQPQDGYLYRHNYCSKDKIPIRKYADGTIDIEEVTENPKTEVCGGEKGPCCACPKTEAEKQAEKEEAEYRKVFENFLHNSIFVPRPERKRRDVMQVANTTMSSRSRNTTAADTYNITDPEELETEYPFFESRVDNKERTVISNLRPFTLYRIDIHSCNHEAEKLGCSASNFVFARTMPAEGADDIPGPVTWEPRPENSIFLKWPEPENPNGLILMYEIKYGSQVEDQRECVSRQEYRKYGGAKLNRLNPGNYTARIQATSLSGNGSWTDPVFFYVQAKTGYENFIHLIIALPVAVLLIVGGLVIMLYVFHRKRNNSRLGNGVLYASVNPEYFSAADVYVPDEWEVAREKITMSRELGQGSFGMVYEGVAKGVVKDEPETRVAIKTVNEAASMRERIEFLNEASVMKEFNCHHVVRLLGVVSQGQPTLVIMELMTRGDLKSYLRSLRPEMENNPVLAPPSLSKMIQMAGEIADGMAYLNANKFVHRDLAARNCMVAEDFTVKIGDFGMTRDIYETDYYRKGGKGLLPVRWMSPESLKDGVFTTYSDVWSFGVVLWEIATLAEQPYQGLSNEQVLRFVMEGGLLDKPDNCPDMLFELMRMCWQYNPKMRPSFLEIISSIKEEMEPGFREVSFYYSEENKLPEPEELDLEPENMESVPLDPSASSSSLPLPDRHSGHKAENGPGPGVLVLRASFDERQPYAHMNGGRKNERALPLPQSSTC
T5 sequence (P06239 whole entry): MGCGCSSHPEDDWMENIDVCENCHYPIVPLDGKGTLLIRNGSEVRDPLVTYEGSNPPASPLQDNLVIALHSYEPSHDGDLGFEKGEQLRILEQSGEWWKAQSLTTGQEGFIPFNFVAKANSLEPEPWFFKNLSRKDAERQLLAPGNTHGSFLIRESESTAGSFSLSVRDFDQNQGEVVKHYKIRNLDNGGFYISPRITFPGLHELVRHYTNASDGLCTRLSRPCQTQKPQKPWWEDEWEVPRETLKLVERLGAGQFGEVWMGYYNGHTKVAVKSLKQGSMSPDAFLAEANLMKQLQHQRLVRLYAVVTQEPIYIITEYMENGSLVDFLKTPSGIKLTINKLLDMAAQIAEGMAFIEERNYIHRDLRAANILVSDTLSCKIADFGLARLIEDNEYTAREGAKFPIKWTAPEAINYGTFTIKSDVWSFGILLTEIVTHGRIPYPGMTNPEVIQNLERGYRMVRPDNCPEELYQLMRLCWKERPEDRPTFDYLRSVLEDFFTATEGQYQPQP
T3 sequence (P06241 whole entry): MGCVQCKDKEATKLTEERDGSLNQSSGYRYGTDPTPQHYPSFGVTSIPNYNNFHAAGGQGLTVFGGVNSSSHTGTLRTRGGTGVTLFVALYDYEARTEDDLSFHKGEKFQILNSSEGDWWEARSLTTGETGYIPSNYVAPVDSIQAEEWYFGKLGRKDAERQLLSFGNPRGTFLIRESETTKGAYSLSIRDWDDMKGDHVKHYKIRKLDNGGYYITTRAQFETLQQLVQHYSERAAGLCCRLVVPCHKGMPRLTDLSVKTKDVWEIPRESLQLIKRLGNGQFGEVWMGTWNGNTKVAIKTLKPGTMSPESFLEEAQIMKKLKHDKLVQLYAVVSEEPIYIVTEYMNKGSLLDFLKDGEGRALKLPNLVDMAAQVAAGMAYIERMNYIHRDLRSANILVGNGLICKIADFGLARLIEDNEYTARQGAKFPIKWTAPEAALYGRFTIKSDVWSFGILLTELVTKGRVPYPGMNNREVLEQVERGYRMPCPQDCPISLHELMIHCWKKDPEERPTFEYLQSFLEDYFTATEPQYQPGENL

SMILES: CC(C)C(C)CNCc1ccc2c(c1)[nH]/c(=N\C(=O)c1ccc(C3=CN=NC3)s1)n2CC(C)(C)O (centres unmarked) [BI 10N]
- IC50 ([1]; Table 2, by Carna Biosciences): 23.5 nM
- inhibition at 0.2 µM ([1]; single inhibitor concentration): 91.9%
- IC50 ([2]; Table 2, by Carna Biosciences): 59.7 nM
- inhibition at 0.2 µM ([2]; single inhibitor concentration): 80.2%
- IC50 [3]: 24.2 nM
- IC50 ([4]; Table 2, by Carna Biosciences): 886 nM
- inhibition at 0.2 µM ([4]; single inhibitor concentration): 19%
- IC50 ([5]; Table 2, by Carna Biosciences): 10.6 nM
- inhibition at 0.2 µM ([5]; single inhibitor concentration): 96.7%
- selectivity for ITK over TRKA [6]: about 10 fold
- mode of inhibition ([6]; TRKA): time-dependent inhibitor
- IC50 ([6]; TRKA, 1 mM ATP, Km ATP 65 μM): 0.828 nM
- IC50 ([6]; TRKA, ATP at approximately the Km for ATP, more potent than can be measured): < 0.5 nM
- IC50 ([6]; TRKA, Table 2, by Carna Biosciences): 0.459 nM
- inhibition at 0.2 µM ([6]; TRKA, single inhibitor concentration): 106%
- IC50 [7]: 1.58 nM
- selectivity for ITK over TRKC [7]: about 10 fold
- concentration at which formation of the phosphorylated (active) form of ITK is inhibited [8]: ≥ 25 nM
- activation status of ERK and AKT [9]: No significant effects
- activation status of ERK and AKT [10]: No significant effects
- EC50 ([11]; read-out: EC50 (selective inhibitor of ITK)): 1 nM
- IC50 ([11]; read-out: IC50 (inhibit ITK)): 1 nM
- cytokine production in vivo [12]: decrease cytokine production
